The values below come from patent publication US11590117B2, “Treatment of a hematologic malignancy with 2-(4-chlorophenyl)-n-((2-(2,6-dioxopiperidin-3-yl)-1-oxoisoindolin-5-yl)methyl)-2,2-difluoroacetamide” (priority 2016, dated 2023).

SMILES strings stand for the structures. Read-outs that look alike come from different tables or passages of the source.

One experiment concerns AML cell lines. In words: CellTiter-Glo (CTG) cell proliferation assay, 72 hours, panel of 11 AML cell lines. The class given is cell-based. The note with it: Homo sapiens, 10 out of the 11 AML cell lines tested (sensitive lines), read-out: antiproliferative IC50 values (range). As to the method:
(§1) Preparation of Solutions of Test Article: Compounds were plated into black 384-well plates (Corning Inc.) to a final DMSO volume of 0.1% assuming a maximal volume of 50 μL. A 10-point dose response starting at 10 μM with a 1:3 dilution was printed in duplicate by acoustic dispense using the EDC ATS-100 platform.
Cell Proliferation Assays: The effect of Compound 1 on the proliferation/viability of the hematological cell lines (Table 1 Table, Table 2 and Table 3), THLE-2, or PBMCs was assessed after 72 hours incubation using CTG (Promega), according to manufacturer's instructions. Hematological cell lines were dispensed into compound plates by a Multidrop™ Combi Reagent Dispenser (Thermo Scientific, Waltham, Mass.) at a concentration of 0.1 to 0.3×10^6 cells per mL in a 50 μL total volume. […] At 72 hours, 25 μL per well of CTG was dispensed by a Multidrop™ Combi Reagent Dispenser and adenosine triphosphate (ATP) release by viable cells was measured as relative luminescence units after 30 minutes using the Envision platform.
Results. […] Compound 1 inhibited cell proliferation in 10 out of 11 AML cell lines assessed, as determined by the quantitative assessment of ATP levels present in the media after 72 hours. […]
Proliferation was assessed using the CellTitre-Glo® assay. […] The IC50 for inhibition of cell growth by Compound 1 was determined for each cell line using ActivityBase software.
For orientation: In ATP-based viability assays light output follows the ATP content of the culture.

Experiment [1] relates to Chronic Lymphocytic Leukemia patient samples. The experiment is described as follows: CellTiter-Glo (CTG) cell proliferation assay, 72 hours. It counts as cell-based. The note with it: Homo sapiens, Chronic Lymphocytic Leukemia patient samples (n = 3). The protocol:
Table, Table 2 and Table 3. Human normal donor PBMCs and chronic lymphoid leukemia (CLL) patient blasts were obtained from AllCells, LLC (Alameda, Calif.).
as §1
Cell Proliferation Assays: The effect of Compound 1 on the proliferation/viability of the hematological cell lines (Table 1 Table, Table 2 and Table 3), THLE-2, or PBMCs was assessed after 72 hours incubation using CTG (Promega), according to manufacturer's instructions. Hematological cell lines were dispensed into compound plates by a Multidrop™ Combi Reagent Dispenser (Thermo Scientific, Waltham, Mass.) at a concentration of 0.1 to 0.3×10^6 cells per mL in a 50 μL total volume. THLE-2 cells were seeded out at 1000 cells per well in 50 μL volume and incubated for 72 hours. At 72 hours, 25 μL per well of CTG was dispensed by a Multidrop™ Combi Reagent Dispenser and adenosine triphosphate (ATP) release by viable cells was measured as relative luminescence units after 30 minutes using the Envision platform.

Experiment [2] deals with BFU-E (erythroid progenitors). The experiment is described as follows: cells. It counts as cell-based, human. The note with it: for IC50: Homo sapiens. As to the method:
Experimental design: human bone marrow (BM) CD34+ cells were used to evaluate the potential for BM toxicity induced by Compound 1. In order to test the effects of Compound 1 on the functionality of hematopoietic progenitors, colony forming assays were done by seeding BM CD34+ cells on MethoCult medium. Cells were seeded directly in MethoCult with Compound 1 or cultured in liquid medium with Compound 1 for 2, 4, or 8 hours and then seeded in compound-free MethoCult to evaluate the effect of different exposure times. Early apoptosis induced by Compound 1 on HSC was analyzed by flow cytometry.
Results. Colony forming units (CFU) of common granulocyte/erythrocyte/monocyte/megakaryocyte (CFU-GEMM), CFU of granulocyte/monocyte (CFU-GM), burst forming unit of erythrocytes (BFU-E), and CFU of erythrocytes (CFU-E) in cultures exposed to Compound 1 or DMSO were scored on STEMvision.
Bone marrow CD34+ cells from normal donors were incubated with Compound 1 in MethoCult medium. Colony numbers for CFU-GM and BFU-E progenitors were counted using STEMVision automatic colony counting instrument and software and normalized to the colony number of the DMSO control. Results plotted as percentage of DMSO control vs concentration of Compound 1 were used to determine IC50 values. Data are shown as mean standard error of the mean of n=3 technical replicates. Donors were HD10, HD14, HD18, and HD19.
FIGS. 33A and 33B provide, colony numbers after preincubation of bone marrow CD34+ cells with Compound 1 for 4 or 8 hours, respectively, in Iscove's medium, followed by incubation in MethoCult medium without Compound 1 for 14 days. FIG. 33C provides colony numbers after incubation of bone marrow CD34+ cells in MethoCult medium in continuous presence of Compound 1 for 14 days.

As for `O=C1CCC(N2Cc3cc(CNC(=O)C(F)(F)c4ccc(Cl)cc4)ccc3C2=O)C(=O)N1` (centres unmarked) [Compound 1, 2-(4-chlorophenyl)-N-((2-(2,6-dioxopiperidin-3-yl)-1-oxoisoindolin-5-yl)methyl)-2,2-difluoroacetamide], the IC50 with AML cell lines was 3 to 75 nM; in experiment [1], 10 nM; in experiment [2] (8 hours exposure, donors HD46, HD47, HD48, HD50, read-out: individual IC50 values, BFU-E colonies), 30 to 150 nM; in experiment [2] (CD34+ cells from four healthy donors, Compound 1 in MethoCult, read-out: IC50, inhibition of erythroid progenitors (BFU-E)) it was 32 to 131 nM. For the same compound, the “reduction in number of BFU-E colonies” value in experiment [2] (8 hours exposure, Compound 1 ≥111 nM, donors HD46, HD47, HD48, HD50) is “more than 50%”.

In general, IC50 refers to the concentration needed to halve the response being measured.
